From ChEMBL document CHEMBL4706583, “2-Anilinoquinoline based arylamides as broad spectrum anticancer agents with B-RAF/C-RAF kinase inhibitory effects: Design, synthesis, in vitro cell-based and oncogenic kinase assessments” (Eur J Med Chem, 2020)
pIC50: −log10 of the molar value.

Key:
HCT-116 [1] = assay: Cell cycle arrest in human HCT-116 cells assessed as accumulation at sub-G1 phase at 2.5 uM measured after 24 hrs by propidium iodide staining based flow cytometry (reference value: 8.7%); assay type: functional
MDA-MB-468 = assay: Growth inhibition of human MDA-MB-468 cells measured after 48 hrs by SRB assay; assay type: functional
HCT-116 [2] = assay: Induction of apoptosis in human HCT-116 cells assessed as viable cells at 5 uM measured after 48 hrs by Annexin-V Alexa Fluor488/propidium iodide staining based flow cytometry (reference value: 82.3%); assay type: functional; settings: read-out: Activity
[3] = molecular target: T1, High affinity nerve growth factor receptor (Homo sapiens, UniProt P04629); assay: Inhibition of human TRKA using poly[Glu:Tyr] (4:1) as substrate in presence of [gamma-33P]ATP by scintillation counting method
Target sequence in this assay (P04629 whole entry): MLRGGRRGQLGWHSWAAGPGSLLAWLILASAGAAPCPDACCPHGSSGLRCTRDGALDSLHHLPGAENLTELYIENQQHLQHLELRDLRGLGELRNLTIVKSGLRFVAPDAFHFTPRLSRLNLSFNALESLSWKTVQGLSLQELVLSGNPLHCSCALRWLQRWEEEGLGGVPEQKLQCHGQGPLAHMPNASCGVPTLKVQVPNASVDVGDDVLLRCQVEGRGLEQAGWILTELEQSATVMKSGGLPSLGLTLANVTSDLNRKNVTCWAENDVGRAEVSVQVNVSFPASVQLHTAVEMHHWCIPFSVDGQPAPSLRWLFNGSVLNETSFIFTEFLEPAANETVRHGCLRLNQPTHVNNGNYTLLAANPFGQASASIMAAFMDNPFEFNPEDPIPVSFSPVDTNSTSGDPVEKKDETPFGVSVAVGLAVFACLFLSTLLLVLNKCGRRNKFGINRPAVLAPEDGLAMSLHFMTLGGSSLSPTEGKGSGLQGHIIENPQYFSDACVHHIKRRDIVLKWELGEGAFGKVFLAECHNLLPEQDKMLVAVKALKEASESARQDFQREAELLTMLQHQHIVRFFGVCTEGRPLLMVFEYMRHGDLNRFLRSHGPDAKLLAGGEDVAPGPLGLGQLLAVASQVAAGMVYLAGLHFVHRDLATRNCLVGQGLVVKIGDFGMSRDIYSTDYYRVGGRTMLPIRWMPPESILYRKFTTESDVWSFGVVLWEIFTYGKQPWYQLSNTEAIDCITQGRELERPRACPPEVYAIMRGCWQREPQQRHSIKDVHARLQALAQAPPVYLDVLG

HCT-116 [4] = assay: Cell cycle arrest in human HCT-116 cells assessed as accumulation at G2/M phase at 5 uM measured after 24 hrs by propidium iodide staining based flow cytometry (reference value: 19.2%); assay type: functional
SNB-19 = assay: Growth inhibition of human SNB-19 cells measured after 48 hrs by SRB assay; assay type: functional
UACC-62 = assay: Growth inhibition of human UACC-62 cells measured after 48 hrs by SRB assay; assay type: functional
[5] = test system: Panel NCI-60 (60 carcinoma cell lines); assay: Growth inhibition of human Panel NCI-60 (60 carcinoma cell lines) cells at 10 uM measured after 48 hrs by SRB assay relative to control; assay type: functional; settings: read-out: GI
CAKI-1 = assay: Growth inhibition of human CAKI-1 cells measured after 48 hrs by SRB assay; assay type: functional
HCT-116 [6] = assay: Cell cycle arrest in human HCT-116 cells assessed as accumulation at S phase at 5 uM measured after 24 hrs by propidium iodide staining based flow cytometry (reference value: 7.2%); assay type: functional
HCT-116 [7] = assay: Cell cycle arrest in human HCT-116 cells assessed as accumulation at sub-G1 phase at 1.25 uM measured after 24 hrs by propidium iodide staining based flow cytometry (reference value: 8.7%); assay type: functional
NCI-H522 = assay: Growth inhibition of human NCI-H522 cells measured after 48 hrs by SRB assay; assay type: functional
A549 = assay: Growth inhibition of human A549 cells measured after 48 hrs by SRB assay; assay type: functional
HCT-116 [8] = assay: Induction of apoptosis in human HCT-116 cells assessed as viable cells at 5 uM measured after 24 hrs by Annexin-V Alexa Fluor488/propidium iodide staining based flow cytometry (reference value: 88.1%); assay type: functional; settings: read-out: Activity
HCT-116 [9] = assay: Cell cycle arrest in human HCT-116 cells assessed as accumulation at S phase at 2.5 uM measured after 24 hrs by propidium iodide staining based flow cytometry (reference value: 7.2%); assay type: functional
TK-10 = assay: Growth inhibition of human TK-10 cells measured after 48 hrs by SRB assay; assay type: functional
EKVX = assay: Growth inhibition of human EKVX cells measured after 48 hrs by SRB assay; assay type: functional
HCT-116 [10] = assay: Induction of apoptosis in human HCT-116 cells assessed as viable cells at 2.5 uM measured after 48 hrs by Annexin-V Alexa Fluor488/propidium iodide staining based flow cytometry (reference value: 82.3%); assay type: functional; settings: read-out: Activity
[11] = Cytotoxicity against human L132 cells assessed as cell viability at 3 uM measured after 48 hrs by EZ-Cytox assay relative to control; assay type: cell-based; settings: read-out: Activity
HCT-116 [12] = assay: Cell cycle arrest in human HCT-116 cells assessed as accumulation at G2/M phase at 2.5 uM measured after 24 hrs by propidium iodide staining based flow cytometry (reference value: 19.2%); assay type: functional
HCT-116 [13] = assay: Cell cycle arrest in human HCT-116 cells assessed as accumulation at G1/G0 phase at 5 uM measured after 24 hrs by propidium iodide staining based flow cytometry (reference value: 65%); assay type: functional
MDA-MB-231 = assay: Growth inhibition of human MDA-MB-231 cells measured after 48 hrs by SRB assay; assay type: functional
MDA-MB-435 = assay: Growth inhibition of human MDA-MB-435 cells measured after 48 hrs by SRB assay; assay type: functional
CCRF-CEM = assay: Growth inhibition of human CCRF-CEM cells measured after 48 hrs by SRB assay; assay type: functional
HCT-116 [14] = assay: Cell cycle arrest in human HCT-116 cells assessed as accumulation at G1/G0 phase at 1.25 uM measured after 24 hrs by propidium iodide staining based flow cytometry (reference value: 65%); assay type: functional
HCT-116 [15] = assay: Cell cycle arrest in human HCT-116 cells assessed as accumulation at G2/M phase at 1.25 uM measured after 48 hrs by propidium iodide staining based flow cytometry (reference value: 20.4%); assay type: functional
HCT-116 [16] = assay: Cell cycle arrest in human HCT-116 cells assessed as accumulation at G2/M phase at 2.5 uM measured after 48 hrs by propidium iodide staining based flow cytometry (reference value: 20.4%); assay type: functional
[17] = molecular target: RAF proto-oncogene serine/threonine-protein kinase (Homo sapiens, UniProt P04049); assay: Inhibition of human CRAF at 10 uM using MEK1 (K97R) as substrate in presence of [gamma-33P]ATP by scintillation counting method relative to control
[18] = molecular target: T1, High affinity nerve growth factor receptor; assay: Inhibition of human TRKA at 10 uM using poly[Glu:Tyr] (4:1) as substrate in presence of [gamma-33P]ATP by scintillation counting method relative to control
Target sequence in this assay (P04629 33-796 limits assumed): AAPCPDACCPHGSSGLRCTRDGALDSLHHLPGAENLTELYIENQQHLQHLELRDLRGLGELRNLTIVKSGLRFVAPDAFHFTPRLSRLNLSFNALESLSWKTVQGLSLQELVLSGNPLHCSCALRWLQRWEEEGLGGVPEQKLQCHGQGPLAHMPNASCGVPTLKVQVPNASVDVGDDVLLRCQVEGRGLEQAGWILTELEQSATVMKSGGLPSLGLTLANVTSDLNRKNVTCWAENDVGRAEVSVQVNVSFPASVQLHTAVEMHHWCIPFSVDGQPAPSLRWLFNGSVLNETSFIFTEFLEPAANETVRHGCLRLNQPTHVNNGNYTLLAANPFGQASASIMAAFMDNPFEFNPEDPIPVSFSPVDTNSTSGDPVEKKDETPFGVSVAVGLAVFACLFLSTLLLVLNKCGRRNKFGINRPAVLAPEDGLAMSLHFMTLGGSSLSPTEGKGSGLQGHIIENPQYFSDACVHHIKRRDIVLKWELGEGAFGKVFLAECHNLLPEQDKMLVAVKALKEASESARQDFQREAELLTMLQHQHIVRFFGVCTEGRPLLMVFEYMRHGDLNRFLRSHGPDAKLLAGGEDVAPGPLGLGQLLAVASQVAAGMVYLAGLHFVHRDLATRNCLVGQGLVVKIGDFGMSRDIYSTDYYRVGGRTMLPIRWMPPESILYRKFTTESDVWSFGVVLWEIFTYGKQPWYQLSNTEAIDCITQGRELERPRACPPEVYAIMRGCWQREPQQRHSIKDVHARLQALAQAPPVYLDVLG

HCT-116 [19] = assay: Cell cycle arrest in human HCT-116 cells assessed as accumulation at sub-G1 phase at 5 uM measured after 48 hrs by propidium iodide staining based flow cytometry (reference value: 17%); assay type: functional
HCT-116 [20] = assay: Cell cycle arrest in human HCT-116 cells assessed as accumulation at G1/G0 phase at 2.5 uM measured after 48 hrs by propidium iodide staining based flow cytometry (reference value: 52.2%); assay type: functional
[21] = molecular target: Discoidin domain-containing receptor 2 (Homo sapiens) (UniProt Q16832); assay: Inhibition of human DDR2 at 10 uM using KKSRGDYMTMQIG as substrate in presence of [gamma-33P]ATP by scintillation counting method relative to control
[22] = molecular target: Serine/threonine-protein kinase B-raf (Homo sapiens, UniProt P15056); assay: Inhibition of human BRAF at 10 uM using MEK1 (K97R) as substrate in presence of [gamma-33P]ATP by scintillation counting method relative to control
[23] = test system: Serine/threonine-protein kinase B-raf (Homo sapiens), P15056 [V600E]; assay: Inhibition of human BRAF V600E mutant at 10 uM using MEK1 (K97R) as substrate in presence of [gamma-33P]ATP by scintillation counting method relative to control
[24] = molecular target: Macrophage colony-stimulating factor 1 receptor (Homo sapiens) (UniProt P07333); assay: Inhibition of human FMS at 10 uM using poly[Glu:Tyr] (4:1) as substrate in presence of [gamma-33P]ATP by scintillation counting method relative to control
HCT-116 [25] = assay: Cell cycle arrest in human HCT-116 cells assessed as accumulation at sub-G1 phase at 1.25 uM measured after 48 hrs by propidium iodide staining based flow cytometry (reference value: 17%); assay type: functional

Sequence of RAF proto-oncogene serine/threonine-protein kinase (P04049 whole entry): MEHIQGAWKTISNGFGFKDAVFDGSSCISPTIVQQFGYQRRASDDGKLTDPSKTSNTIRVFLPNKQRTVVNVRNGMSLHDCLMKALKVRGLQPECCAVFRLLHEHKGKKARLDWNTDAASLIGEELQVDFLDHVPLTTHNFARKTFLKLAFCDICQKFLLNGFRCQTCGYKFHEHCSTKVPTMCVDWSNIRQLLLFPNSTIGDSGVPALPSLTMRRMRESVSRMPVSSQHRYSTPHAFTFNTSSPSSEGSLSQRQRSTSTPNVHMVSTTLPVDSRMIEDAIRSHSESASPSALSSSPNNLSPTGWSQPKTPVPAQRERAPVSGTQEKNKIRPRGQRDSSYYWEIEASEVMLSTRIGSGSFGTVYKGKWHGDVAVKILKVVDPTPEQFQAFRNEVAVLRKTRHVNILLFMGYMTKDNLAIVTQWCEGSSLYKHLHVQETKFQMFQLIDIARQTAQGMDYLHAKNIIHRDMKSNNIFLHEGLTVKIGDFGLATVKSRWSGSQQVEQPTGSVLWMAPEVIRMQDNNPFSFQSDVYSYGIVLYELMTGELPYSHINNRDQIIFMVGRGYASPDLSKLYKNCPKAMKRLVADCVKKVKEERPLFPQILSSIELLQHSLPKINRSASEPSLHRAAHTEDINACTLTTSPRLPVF
Sequence of Discoidin domain-containing receptor 2 (Homo sapiens) (Q16832 whole entry, the tested form may be a part): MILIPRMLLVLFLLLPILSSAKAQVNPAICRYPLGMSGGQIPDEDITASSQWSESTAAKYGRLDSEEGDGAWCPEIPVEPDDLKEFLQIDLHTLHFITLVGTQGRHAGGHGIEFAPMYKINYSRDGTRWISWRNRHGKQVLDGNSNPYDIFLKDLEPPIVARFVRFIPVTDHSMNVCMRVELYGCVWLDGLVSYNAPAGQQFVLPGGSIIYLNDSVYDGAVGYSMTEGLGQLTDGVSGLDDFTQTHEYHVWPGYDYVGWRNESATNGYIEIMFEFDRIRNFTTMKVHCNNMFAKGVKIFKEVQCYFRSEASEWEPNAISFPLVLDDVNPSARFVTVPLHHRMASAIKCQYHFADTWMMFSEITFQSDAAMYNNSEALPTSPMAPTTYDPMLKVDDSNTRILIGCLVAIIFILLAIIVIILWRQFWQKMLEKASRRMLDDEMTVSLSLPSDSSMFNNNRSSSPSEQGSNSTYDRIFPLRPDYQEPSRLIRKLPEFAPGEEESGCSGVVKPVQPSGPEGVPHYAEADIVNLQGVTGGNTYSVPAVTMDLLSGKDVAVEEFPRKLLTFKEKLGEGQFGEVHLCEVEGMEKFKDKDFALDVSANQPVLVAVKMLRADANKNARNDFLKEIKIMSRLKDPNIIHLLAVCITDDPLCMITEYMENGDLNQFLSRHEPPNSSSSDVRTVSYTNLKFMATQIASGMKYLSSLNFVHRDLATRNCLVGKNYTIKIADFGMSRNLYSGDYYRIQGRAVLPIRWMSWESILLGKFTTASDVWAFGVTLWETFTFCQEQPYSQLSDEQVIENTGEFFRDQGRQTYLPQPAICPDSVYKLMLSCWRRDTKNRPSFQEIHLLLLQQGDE
Sequence of Serine/threonine-protein kinase B-raf (P15056 whole entry): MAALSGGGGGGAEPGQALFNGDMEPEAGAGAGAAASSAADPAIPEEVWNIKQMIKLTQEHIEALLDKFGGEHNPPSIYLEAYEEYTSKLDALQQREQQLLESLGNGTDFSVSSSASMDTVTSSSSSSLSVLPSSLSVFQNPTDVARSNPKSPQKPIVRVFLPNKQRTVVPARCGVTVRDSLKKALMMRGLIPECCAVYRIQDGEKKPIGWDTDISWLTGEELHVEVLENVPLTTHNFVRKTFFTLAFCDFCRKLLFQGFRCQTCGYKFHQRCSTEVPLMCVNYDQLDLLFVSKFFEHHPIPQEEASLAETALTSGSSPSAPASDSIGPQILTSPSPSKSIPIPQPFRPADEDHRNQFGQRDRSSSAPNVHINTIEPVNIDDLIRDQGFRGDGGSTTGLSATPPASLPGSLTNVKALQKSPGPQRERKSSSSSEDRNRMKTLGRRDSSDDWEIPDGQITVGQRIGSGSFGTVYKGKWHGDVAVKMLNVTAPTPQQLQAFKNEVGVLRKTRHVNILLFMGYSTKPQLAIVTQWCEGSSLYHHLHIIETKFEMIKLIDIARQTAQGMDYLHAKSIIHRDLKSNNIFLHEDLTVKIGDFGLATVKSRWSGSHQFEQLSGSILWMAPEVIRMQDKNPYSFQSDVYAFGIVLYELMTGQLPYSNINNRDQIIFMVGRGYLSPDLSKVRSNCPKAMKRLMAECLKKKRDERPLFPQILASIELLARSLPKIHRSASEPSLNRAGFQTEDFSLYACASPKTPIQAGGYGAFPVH
Sequence of Macrophage colony-stimulating factor 1 receptor (Homo sapiens) (P07333 whole entry): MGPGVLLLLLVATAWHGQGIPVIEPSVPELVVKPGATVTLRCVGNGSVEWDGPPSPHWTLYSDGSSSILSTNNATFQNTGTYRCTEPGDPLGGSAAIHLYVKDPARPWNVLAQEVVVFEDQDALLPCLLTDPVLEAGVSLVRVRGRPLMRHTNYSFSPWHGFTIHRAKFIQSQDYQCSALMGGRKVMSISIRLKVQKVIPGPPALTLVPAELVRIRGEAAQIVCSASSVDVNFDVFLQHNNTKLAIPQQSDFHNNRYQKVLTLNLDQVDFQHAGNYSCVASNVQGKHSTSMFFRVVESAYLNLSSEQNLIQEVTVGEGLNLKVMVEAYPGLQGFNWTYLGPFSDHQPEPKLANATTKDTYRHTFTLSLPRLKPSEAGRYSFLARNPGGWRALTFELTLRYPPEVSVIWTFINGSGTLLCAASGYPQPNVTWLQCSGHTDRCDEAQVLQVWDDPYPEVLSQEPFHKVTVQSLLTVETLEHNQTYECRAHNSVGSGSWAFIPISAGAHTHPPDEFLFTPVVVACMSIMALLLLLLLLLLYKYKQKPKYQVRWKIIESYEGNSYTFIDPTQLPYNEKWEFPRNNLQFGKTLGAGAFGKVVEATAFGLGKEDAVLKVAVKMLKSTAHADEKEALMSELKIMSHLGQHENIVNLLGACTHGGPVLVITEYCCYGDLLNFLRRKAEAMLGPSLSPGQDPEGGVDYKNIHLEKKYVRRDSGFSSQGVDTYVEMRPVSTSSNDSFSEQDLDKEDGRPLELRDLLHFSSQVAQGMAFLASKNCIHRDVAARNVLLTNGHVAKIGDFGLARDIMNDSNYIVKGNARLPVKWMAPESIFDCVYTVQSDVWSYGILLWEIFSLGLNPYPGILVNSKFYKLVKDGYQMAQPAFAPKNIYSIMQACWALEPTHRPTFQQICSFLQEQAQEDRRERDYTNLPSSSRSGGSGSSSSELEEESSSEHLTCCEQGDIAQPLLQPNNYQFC
Sequence of Serine/threonine-protein kinase B-raf (Homo sapiens), P15056 [V600E] (P15056 whole entry V600E): as the sequence (P15056 whole entry) above, with V600E counted along it

Structure (SMILES)	GI50 (MDA-MB-468) [nM]	LC50 (MDA-MB-468) [nM]	TGI (MDA-MB-468) [nM]	viability at 5 µM (HCT-116 [2]) [%]	pIC50 [3]	GI50 (SNB-19) [nM]	GI50 (UACC-62) [nM]	inhibition of growth at 10 µM [5] [%]	GI50 (CAKI-1) [nM]	GI50 (NCI-H522) [nM]	GI50 (A549) [nM]	viability at 5 µM (HCT-116 [8]) [%]	GI50 (TK-10) [nM]	GI50 (EKVX) [nM]	viability at 2.5 µM (HCT-116 [10]) [%]	viability at 48 h, 3 µM [11] [%]	GI50 (MDA-MB-231) [nM]	GI50 (MDA-MB-435) [nM]	GI50 (CCRF-CEM) [nM]	LC50 (CCRF-CEM) [nM]	also measured
COc1cccc2nc(Nc3cccc(NC(=O)c4ccc(N5CCN(C)CC5)c(C(F)(F)F)c4)c3)ccc12	1110	18400	3650	61.5	4.47	1110	1060	86.8	1120	1040	1430	85.1	2010	1830	79.5	88.6	1550	878	1400	> 50000	Activity (HCT-116 [1]): 7.9%; Activity (HCT-116 [4]): 13.7%; Activity (HCT-116 [6]): 6.3%; Activity (HCT-116 [7]): 9.6%; Activity (HCT-116 [9]): 7.3%; Activity (HCT-116 [12]): 15.1%; Activity (HCT-116 [13]): 71%; TGI (CCRF-CEM): > 50000 nM; Activity (HCT-116 [14]): 66.6%
CCN1CCN(c2cc(C(=O)Nc3cccc(Nc4ccc5c(OC)cccc5n4)c3)cc(C(F)(F)F)c2)CC1	749	14600	4050	72	5.78	2100	1500	95	917	1010	1050	79.2	3470	3070	78.8	82.8	1800	1160	758	8040	Activity (HCT-116 [15]): 15.5%; Activity (HCT-116 [16]): 12.9%; inhibition [17]: 94.4%; inhibition [18]: 88%; Activity (HCT-116 [19]): 14.1%; Activity (HCT-116 [20]): 57.1%; inhibition [21]: 67.5%; inhibition [22]: 94.4%; inhibition [23]: 94.4%; TGI (CCRF-CEM): 2060 nM; inhibition [24]: 60.7%; Activity (HCT-116 [25]): 21%
